Drawing on patent US8791102B2, “Acetanilide sphingosine-1-phosphate receptor antagonists” (Exelixis, Inc., priority 2008, dated 2014), this text covers IC50 for 13 compounds.

The target of this test is T1, human S1P1 receptors (Homo sapiens, UniProt P21453).
T1 construct: host or cells: HEK293
T1 sequence (P21453 whole entry): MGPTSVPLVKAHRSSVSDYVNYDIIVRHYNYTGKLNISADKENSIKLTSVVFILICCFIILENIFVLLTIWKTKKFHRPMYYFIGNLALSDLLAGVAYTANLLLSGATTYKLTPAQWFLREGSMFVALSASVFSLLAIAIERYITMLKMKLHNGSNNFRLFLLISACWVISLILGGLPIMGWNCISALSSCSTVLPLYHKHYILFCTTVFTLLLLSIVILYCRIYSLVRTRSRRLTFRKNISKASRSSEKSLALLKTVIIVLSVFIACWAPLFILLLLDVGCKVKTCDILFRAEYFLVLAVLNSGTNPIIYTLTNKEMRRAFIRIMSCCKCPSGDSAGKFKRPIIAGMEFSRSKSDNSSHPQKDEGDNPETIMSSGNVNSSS
The experiment in a line: S1P1R antagonist assay (fluorescent membrane potential dye, cAMP readout). Conditions: HEK293 cells expressing human S1P1 receptors and CNG channel; 500 nM NECA; S1P1R agonist 10 nM; 90 minutes; read-out: EC50 or IC50 value. The format is cell-based.
Turning to `O=C(NC(COCc1ccccc1)C(=O)Nc1ccc(Oc2ccccc2)cc1)c1ccccc1-n1cccc1` (stereo not shown) [Compound 314, N-(2-oxo-1-{[(phenylmethyl)oxy]methyl}-2-{[4-(phenyloxy)phenyl]amino}ethyl)-2-(1H-pyrrol-1-yl)benzamide], the half-inhibitory concentration (IC50) (in general, the midpoint of a concentration-inhibition curve) is above 1000 nM.
With `O=C(Cc1c[nH]cn1)N[C@@H](COCc1ccccc1)C(=O)Nc1ccc(Oc2nccs2)cc1` [Compound 206, (S)-2-(2-(1H-imidazol-4-yl)acetamido)-3-(benzyloxy)-N-(4-(thiazol-2-yloxy)phenyl)propanamide], the half-maximal inhibitory concentration (IC50) lay in the range of 300 to 1000 nM.
As for `O=C(NC(COCc1ccccc1)C(=O)Nc1ccc(Oc2ccccc2)cc1)C1Cc2ccccc2C1` (stereo not shown) [Compound 188, N-(3-(benzyloxy)-1-oxo-1-(4-phenoxyphenylamino)propan-2-yl)-2,3-dihydro-1H-indene-2-carboxamide], the figure is 300 to 1000 nM.
Consider `O=C(Cn1ccnn1)N[C@@H](COCc1ccccc1)C(=O)Nc1ccc(Oc2ccc(F)cc2)cc1` [Compound 174, (S)-2-(2-(1H-1,2,3-triazol-1-yl)acetamido)-3-(benzyloxy)-N-(4-(4-fluorophenoxy)phenyl)propanamide], for which the 50% inhibitory concentration (IC50) was at most 300 nM.
The result for `O=C(NC(COCc1ccccc1)C(=O)Nc1ccc(Oc2ccccc2)cc1)C(=O)c1ccco1` (stereo not shown) [Compound 14, 3-(benzyloxy)-2-(2-(furan-2-yl)-2-oxoacetamido)-N-(4-phenoxyphenyl)propanamide] reads above 1000 nM.
The result for `O=C(COc1cccc2ccccc12)NC(COCc1ccccc1)C(=O)Nc1ccc(Oc2ccccc2)cc1` (stereo not shown) [Compound 371, N-(2-oxo-1-{[(phenylmethyl)oxy]methyl}-2-{[4-(phenyloxy)phenyl]amino}ethyl)-2-(naphthalen-1-yloxy)acetamide] reads above 1000 nM; that for `CCOc1ccc(CC(=O)NC(COCc2ccccc2)C(=O)Nc2ccc(Oc3ccccc3)cc2)cc1` (stereo not shown) [Compound 343, N-(2-oxo-1-{[(phenylmethyl)oxy]methyl}-2-{[4-(phenyloxy)phenyl]amino}ethyl)-2-(4-ethoxyphenyl)acetamide], above 1000 nM.
As for `CS(=O)(=O)c1ccc(C(=O)NC(COCc2ccccc2)C(=O)Nc2ccc(Oc3ccccc3)cc2)cc1` (stereo not shown) [Compound 333, 4-(methylsulfonyl)-N-(2-oxo-1-{[(phenylmethyl)oxy]methyl}-2-{[4-(phenyloxy)phenyl]amino}ethyl)benzamide], the figure is above 1000 nM; as for `O=C(Nc1ccc(Oc2ccc(F)cc2)cc1)[C@@H]1C[C@@H](Cc2cccc(Cl)c2)CN1C(=O)Cn1cncn1` [Compound 61, (2S,4R)-1-(2-(1H-1,2,4-triazol-1-yl)acetyl)-4-(3-chlorobenzyl)-N-(4-(4-fluorophenoxy)phenyl)pyrrolidine-2-carboxamide], at most 300 nM; as for `Cc1cc(CC(=O)N2C[C@H](Cc3ccccc3)C[C@H]2C(=O)Nc2ccc(Oc3ccc(F)cc3)cc2)on1` [Compound 32, (2S,4R)-4-benzyl-N-(4-(4-fluorophenoxy)phenyl)-1-(2-(3-methylisoxazol-5-yl)acetyl)pyrrolidine-2-carboxamide], at most 300 nM.
With `COCCN1CCN(CC(=O)N2C[C@H](Cc3ccccc3)C[C@H]2C(=O)Nc2ccc(Oc3ccc(F)cc3)cc2)CC1` [Compound 100, (2S,4R)-4-benzyl-N-(4-(4-fluorophenoxy)phenyl)-1-(2-(4-(2-methoxyethyl)piperazin-1-yl)acetyl)pyrrolidine-2-carboxamide], the half-maximal inhibitory concentration (IC50) was at most 300 nM.
The result for `O=C(Nc1ccc(Oc2ccc(F)cc2)cc1)[C@@H]1C[C@@H](OCc2ccccc2)CN1C(=O)Cn1cncn1` [Compound 252, (2S,4R)-1-(2-(1H-1,2,4-triazol-1-yl)acetyl)-4-(benzyloxy)-N-(4-(4-fluorophenoxy)phenyl)pyrrolidine-2-carboxamide] reads at most 300 nM; that for `O=C(Nc1ccc(Oc2ccc(F)cc2)cc1)[C@@H]1C[C@@H](Cc2ccccc2)CN1C(=O)Cc1c(F)cccc1F` [Compound 95, (2S,4R)-4-benzyl-1-(2-(2,6-difluorophenyl)acetyl)-N-(4-(4-fluorophenoxy)phenyl)pyrrolidine-2-carboxamide], at most 300 nM.
